From publication PMC10257182, “Discovery of senolytics using machine learning” (Nature Communications, 2023)
Like-named read-outs stand apart in the source and are kept apart here.

Key:
Assay type in all cases: cell-based, human
[1] = test system: non-senescent control IMR90 ER:RAS cells; test: Nuclei count (Hoechst, high content imaging) senolytic assay, OIS model, non-senescent control cells; settings: Homo sapiens
In short: (§1)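 Cells seeded, left 24 h, then dosed across a 10-point […] series (10 μM down to 10 nM) with DMSO control. After 72 h, wells were fixed, permeabilised and stained with Hoechst. Nuclei were counted by high-content imaging in senescent and non-senescent IMR90 ER:RAS cultures.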

[2] = test system: senescent IMR90 ER:RAS cells (4-OHT-induced); test: Nuclei count (Hoechst, high content imaging) senolytic assay, oncogene-induced senescence (OIS) model, senescent cells; settings: Homo sapiens
In short: as §1

[3] = test system: non-senescent control A549 cells; test: Nuclei count senolytic assay, TIS model, non-senescent control cells; settings: Homo sapiens, A549, Control cells, mean, read-out: Mean % Cell Survival
In short: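 Senescence in A549 cells is induced by 48 h of 100 μM etoposide followed by three days without drug, alongside non-senescent controls. Cells are seeded, rested 24 h, then exposed 72 h to compounds (10 nM–10 μM final, […] steps, triplicate) before nuclei are counted by imaging.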

Cc1cnc(C(=O)N[C@H]2CCCCC/C=C\[C@@H]3C[C@@]3(C(=O)NS(=O)(=O)C3CC3)NC(=O)[C@@H]3C[C@@H](Oc4nc5ccccc5c5ccccc45)CN3C2=O)cn1 [Paritaprevir, paritaprevir, reference compound]
viability at 10 µM ([1]; IMR-90, 72 h, Control, log (dose) [M] -5, 72 h, mean n=3 (Fig 3C), read-out: Mean % Cell Survival): 95% | viability at 4.677 µM ([1]; IMR-90, 72 h, Control, log (dose) [M] -5.33, 72 h, mean n=3 (Fig 3C), read-out: Mean % Cell Survival): 90.1% | viability at 2.188 µM ([1]; IMR-90, 72 h, Control, log (dose) [M] -5.66, 72 h, mean n=3 (Fig 3C), read-out: Mean % Cell Survival): 102% | viability at 1 µM ([1]; IMR-90, 72 h, Control, log (dose) [M] -6, 72 h, mean n=3 (Fig 3C), read-out: Mean % Cell Survival): 78.8% | viability at 0.4677 µM ([1]; IMR-90, 72 h, Control, log (dose) [M] -6.33, 72 h, mean n=3 (Fig 3C), read-out: Mean % Cell Survival): 87.9% | viability at 0.2188 µM ([1]; IMR-90, 72 h, Control, log (dose) [M] -6.66, 72 h, mean n=3 (Fig 3C), read-out: Mean % Cell Survival): 82.7% | viability at 0.1 µM ([1]; IMR-90, 72 h, Control, log (dose) [M] -7, 72 h, mean n=3 (Fig 3C), read-out: Mean % Cell Survival): 81.5% | viability at 0.04677 µM ([1]; IMR-90, 72 h, Control, log (dose) [M] -7.33, 72 h, mean n=3 (Fig 3C), read-out: Mean % Cell Survival): 87.1% | viability at 0.02188 µM ([1]; IMR-90, 72 h, Control, log (dose) [M] -7.66, 72 h, mean n=3 (Fig 3C), read-out: Mean % Cell Survival): 88.3% | viability at 0.01 µM ([1]; IMR-90, 72 h, Control, log (dose) [M] -8, 72 h, mean n=3 (Fig 3C), read-out: Mean % Cell Survival): 101% | viability at 10 µM ([1]; IMR-90, Control cells, log (dose) [M] -5, individual replicates, SUP FIG 4C, read-out: % Cell Survival): 93.1% | viability at 4.677 µM ([1]; IMR-90, Control cells, log (dose) [M] -5.33, individual replicates, SUP FIG 4C, read-out: % Cell Survival): 86.6% | viability at 0.4677 µM ([1]; IMR-90, Control cells, log (dose) [M] -6.33, individual replicates, SUP FIG 4C, read-out: % Cell Survival): 89.5% | viability at 0.2188 µM ([1]; IMR-90, Control cells, log (dose) [M] -6.66, individual replicates, SUP FIG 4C, read-out: % Cell Survival): 83.1% | viability at 0.1 µM ([1]; IMR-90, Control cells, log (dose) [M] -7, individual replicates, SUP FIG 4C, read-out: % Cell Survival): 73.5% | viability at 0.04677 µM ([1]; IMR-90, Control cells, log (dose) [M] -7.33, individual replicates, SUP FIG 4C, read-out: % Cell Survival): 83% | viability at 0.02188 µM ([1]; IMR-90, Control cells, log (dose) [M] -7.66, individual replicates, SUP FIG 4C, read-out: % Cell Survival): 88% | viability at 0.01 µM ([1]; IMR-90, Control cells, log (dose) [M] -8, individual replicates, SUP FIG 4C, read-out: % Cell Survival): 102% | viability at 10 µM ([1]; IMR-90, Control, log (dose) [M] -5, read-out: % Cell Survival): 96% | viability at 4.68 µM ([1]; IMR-90, Control, log (dose) [M] -5.33, read-out: % Cell Survival): 96.2% | viability at 2.19 µM ([1]; IMR-90, Control, log (dose) [M] -5.66, read-out: % Cell Survival): 99.1% | viability at 1 µM ([1]; IMR-90, Control, log (dose) [M] -6, read-out: % Cell Survival): 96.6% | viability at 0.468 µM ([1]; IMR-90, Control, log (dose) [M] -6.33, read-out: % Cell Survival): 97.8% | viability at 0.219 µM ([1]; IMR-90, Control, log (dose) [M] -6.66, read-out: % Cell Survival): 99.6% | viability at 0.1 µM ([1]; IMR-90, Control, log (dose) [M] -7, read-out: % Cell Survival): 94.1% | viability at 0.04677 µM ([1]; IMR-90, Control, log (dose) [M] -7.33, read-out: % Cell Survival): 94.2% | viability at 0.0219 µM ([1]; IMR-90, Control, log (dose) [M] -7.66, read-out: % Cell Survival): 97% | viability at 0.01 µM ([1]; IMR-90, Control, log (dose) [M] -8, read-out: % Cell Survival): 101% | viability at 10 µM ([2]; IMR-90, 72 h, Senescent, log (dose) [M] -5, 72 h, mean n=3 (Fig 3C), read-out: Mean % Cell Survival): 69.5% | viability at 4.677 µM ([2]; IMR-90, 72 h, Senescent, log (dose) [M] -5.33, 72 h, mean n=3 (Fig 3C), read-out: Mean % Cell Survival): 86.5% | viability at 2.188 µM ([2]; IMR-90, 72 h, Senescent, log (dose) [M] -5.66, 72 h, mean n=3 (Fig 3C), read-out: Mean % Cell Survival): 70.9% | viability at 1 µM ([2]; IMR-90, 72 h, Senescent, log (dose) [M] -6, 72 h, mean n=3 (Fig 3C), read-out: Mean % Cell Survival): 67.9% | viability at 0.4677 µM ([2]; IMR-90, 72 h, Senescent, log (dose) [M] -6.33, 72 h, mean n=3 (Fig 3C), read-out: Mean % Cell Survival): 78.9% | viability at 0.2188 µM ([2]; IMR-90, 72 h, Senescent, log (dose) [M] -6.66, 72 h, mean n=3 (Fig 3C), read-out: Mean % Cell Survival): 76.2% | viability at 0.1 µM ([2]; IMR-90, 72 h, Senescent, log (dose) [M] -7, 72 h, mean n=3 (Fig 3C), read-out: Mean % Cell Survival): 79.8% | viability at 0.04677 µM ([2]; IMR-90, 72 h, Senescent, log (dose) [M] -7.33, 72 h, mean n=3 (Fig 3C), read-out: Mean % Cell Survival): 84.7% | viability at 0.02188 µM ([2]; IMR-90, 72 h, Senescent, log (dose) [M] -7.66, 72 h, mean n=3 (Fig 3C), read-out: Mean % Cell Survival): 86.9% | viability at 0.01 µM ([2]; IMR-90, 72 h, Senescent, log (dose) [M] -8, 72 h, mean n=3 (Fig 3C), read-out: Mean % Cell Survival): 70.3% | viability at 4.677 µM ([2]; IMR-90, Senescent cells, log (dose) [M] -5.33, individual replicates, SUP FIG 4C, read-out: % Cell Survival): 87.6% | viability at 0.1 µM ([2]; IMR-90, Senescent cells, log (dose) [M] -7, individual replicates, SUP FIG 4C, read-out: % Cell Survival): 75% | viability at 10 µM ([2]; IMR-90, Senescent, log (dose) [M] -5, read-out: % Cell Survival): 115% | viability at 4.677 µM ([2]; IMR-90, Senescent, log (dose) [M] -5.33, read-out: % Cell Survival): 110% | viability at 2.188 µM ([2]; IMR-90, Senescent, log (dose) [M] -5.66, read-out: % Cell Survival): 113% | viability at 1 µM ([2]; IMR-90, Senescent, log (dose) [M] -6, read-out: % Cell Survival): 105% | viability at 0.4677 µM ([2]; IMR-90, Senescent, log (dose) [M] -6.33, read-out: % Cell Survival): 111% | viability at 0.1 µM ([2]; IMR-90, Senescent, log (dose) [M] -7, read-out: % Cell Survival): 112% | viability at 0.04677 µM ([2]; IMR-90, Senescent, log (dose) [M] -7.33, read-out: % Cell Survival): 118% | viability at 0.01 µM ([2]; IMR-90, Senescent, log (dose) [M] -8, read-out: % Cell Survival): 107% | viability at 10 µM ([3]; log (dose) [M] -5): 96.8% | viability at 4.68 µM ([3]; log (dose) [M] -5.33): 93% | viability at 2.19 µM ([3]; log (dose) [M] -5.66): 96% | viability at 1 µM ([3]; log (dose) [M] -6): 95.4% | viability at 0.468 µM ([3]; log (dose) [M] -6.33): 98.6% | viability at 0.219 µM ([3]; log (dose) [M] -6.66): 97.7% | viability at 0.1 µM ([3]; log (dose) [M] -7): 95.4% | viability at 0.0468 µM ([3]; log (dose) [M] -7.33): 95.7% | viability at 0.0219 µM ([3]; log (dose) [M] -7.66): 95.5% | viability at 0.01 µM ([3]; log (dose) [M] -8): 101%
